Measurements reported in patent US4680382A, “Analogues of actinomycin D” (priority 1986, dated 1987).
*1 amine or outer side, *2 acyl side, *3 side chain or, on linkers, in order; H or OH if unused. Where a SMILES comes first, the peptide text is derived from it. Bridges are numbered along the chain shown (N, C = ends). Roman numbers before positions name the chains, in order. [ ]: non-standard residue; d: D form. Actinocin(9to1) = Cc1c2oc3c(C)ccc(C(=O)[*:1])c3nc-2c(C(=O)[*:2])c(N)c1=O; NMeV = CN[C@H](C(=O)O)C(C)C; Sar = CNCC(=O)O

What was measured:
P388 Leukemia = test: Minimum effective dose and therapeutic index vs. P388 leukemia; assay type: in vivo; details: dose giving 45% increase in life span in P388 tumor bearing mice; ip days 1, 5 and 9
Method: (§1) These analogues were also tested in tumor-free BDF1 male mice for determination of their MTD values (Table VIII). The animals (18-22 g) were given a broad range of doses of drugs in 5% dimethyl sulfoxide-saline on days 1, 5 and 9. Drugs were administered ip and the maximum tolerated doses of agents which caused death in only 10% of the tested animals in 21 days (i.e., LD10) were recorded as MTD. […] However, the MED values of 7-hydroxy-AMD and its precursor AMD-OZL 10a are high and are seven to tenfold of the MED values of 4a and 8a. On the basis of these MED values, the therapeutic indices of 8a and 4a are 70 and 96. The therapeutic index of 2a is 13, of 10a 10, and of AMD only 4.
^a Drugs administered ip once on days 1, 5 and 9 starting 1 day after
tumor implantation. Determinations were made from analysis of plotted
^b MED (minimum effective dose) is the dose (milligram/kilogram)
providing an increase in life span of 45% over control in P388 tumor

DNA = test: Viscometry of DNA (test for intercalative binding); details: increasing [ligand]/DNA base pair ratio
Method: The equilibrium binding constants (Kapp and Bapp) of the "reverse" methyl 7a and the "reverse" phenyl 8a were determined from the Scatchard plots of binding isotherms; the Scatchard plots are produced according to the previously described methods using calf-thymus DNA [Sengupta et al, Biochem. Biophys. Acta 521, 89 (1978)]. The Kapp values are 2.5×10^6 and 2.3×10^6 M^-1, respectively; corresponding Bapp values are 0.038 and 0.036. […] But, these "reverse" analogues associate with DNA less strongly; their frequency of binding is also lower compared to that of AMD. However, the "reverse" analogues fail to cause any measurable change in the ratio of the intrinsic viscosity (γ) of DNA with the increasing ratios of [ligand]/DNA base pair (r), even when low molecular weight DNAs (0.5×10^5 to 1.0×10^5) were employed.

P388/ADR = test: In vivo activity against P388/adriamycin-resistant leukemia; set-up: species or system BDF1 mice; details: for P388/ADR optimal dose: ip, days 1, 5 and 9
Method: (§2) ^a Male BDF1 mice inoculated ip: 10^6 cells inoculum, day 0.
(§3) Drugs administered in 10% dimethyl sulfoxidesaline on days 1, 5 and 9. %
(§4) ILS = percent increase in life span. Fractions in parentheses = tumorfree
(§5) survivors/total on day 60. P388/S (adriamycin sensitive) and P388/ADR
(§6) (adriamycin resistant) tumors were evaluated in the same experiment with […]

P388/S = test: In vivo activity against P388/S (adriamycin sensitive) leukemia, Table VII; set-up: species or system BDF1 mice; details: for P388/S % ILS / P388/S tumor-free survivors/total on day 60: at optimal dose; for P388/S optimal dose: ip, days 1, 5 and 9
Method: as §2, §3, §4, §5, §6

[1] = Maximum tolerated dose (LD10) in tumor-free BDF1 male mice; assay type: in vivo; details: lethal dose for 10% normal BDF1 male mice, 21 days (LD10); ip days 1, 5 and 9
Method: as §1
^c MTD (maximum tolerated dose) is the lethal dose
(milligram/kilogram) for 10% normal BDF1 male mice (18-22 g); animal
calculated from a plot of logdose vs. percent mortality.

[2] = Metabolism of tritiated drugs in tumor cell homogenate (sonicated P388 cells); assay type: in vitro ADME, murine; details: tumor cell homogenate (T), 16 hr; for Percent isolated: unconverted: 37° C.
Method: A method of using tumor cell sonicates was developed to study the metabolism of the analogues of AMD. By use of sonicated cells, the dilution effects that would occur if flasks of cultured cells were used are avoided. Although the cells are disrupted by this method, their enzyme systems appear to remain active. Large numbers of tumor cells (P388 murine leukemia) were sonicated in Earle's balanced salt solution (EBSS) and were incubated with tritiated AMD and its analogues 7a and 9a (Table II) for 16 hr. In another experiment, the analogues were treated with rat hepatic microsomes at 37° C. for 6 hr in the presence of a NADPH-generating system. The metabolic products were isolated and identified with the following results (Table II). […] In the microsomes, the major metabolites were in unconjugated forms; in the tumor cell homogenates, the major identified metabolites were glucuronide and sulfate conjugated forms. It should be pointed out that in these metabolic experiments, the identification of these glucuronide and/or sulfate conjugates was made only on the basis of the disappearance of the peaks from the HPLC chromatograms upon treatment with deconjugating enzymes glucarase.
A large number of P388 cells (10^8 cells) were sonicated in Earle's balanced salt solution (EBSS) in ice. Tritiated analogues 7a, 8a and AMD, 0.4 Ci/mmol, were added and the mixtures were incubated at 37° C. for 16 hr. Drugs in EBSS without the addition of the cell sonicates served as controls. The samples were treated with urea to bring the urea concentration to 5M. The procedure helped to free all drugs that associated noncovalently with DNA. After 60 min at room temperature, the samples were centrifuged through Amicon 1053 cone filters (molecular weight cut-off approximately 25000) after adjustment of pH to 5 to facilitate extraction of unconjugated metabolites in organic solvents.
Unconjugated or uncoupled products were first extracted with ethyl acetate (step A) and aliquots of aqueous layers were treated with equal volumes of glucarase (a preparation of β-glucuronidase and sulfatase) or with buffer (control); see following section. The glucuronide and the sulfate derivatives were thus deconjugated and the freed products were extracted in ethyl acetate (step B). A highly sensitive technique for detection of a series of AMD analogues using HPLC was employed; sensitivity of this assay ranges from 50 nmol when UV-visible absorbances are used to 1 pmol when radioactive analogues of appropriate specific activities are used.
The products in the ethyl acetate extracts were analyzed by HPLC using system I. Prior to deconjugation, the above aqueous layers were examined by systems II and III, which are more suitable for the water-soluble metabolites.
The aqueous layers from step B were combined with the material which was left as residues in the cones in step A. The residues in the cones were extracted in dilute sodium hydroxide and separated from the cell debris by centrifugation (2500 rpm), and the biopolymers were precipitated from the extract with excess ethanol. The precipitated polymers, mostly protein, were lyophilized and dissolved in 0.05M Tris-HCl and were fractionated on Superfine Sephacryl S-200 and the molecular weights of the major fractions were approximated. The major parts of radioactivity were confined to high molecular weight proteins with molecular weights above 67000. The amount of the tissue-bound material was estimated from the pellets in the above centrifugation (2500 rpm). The percentages were calculated on the basis of the total radioactive materials recovered. In most cases, it was over 90%.

Compound | MED (minimum effective dose) (P388 Leukemia) | change in intrinsic viscosity of DNA / intercalative binding by viscometry (DNA) | P388/ADR % ILS (P388/ADR; at optimal dose) | P388/ADR tumor-free survivors/total on day 60 (P388/ADR; at optimal dose) | P388/ADR optimal dose (P388/ADR) | P388/S % ILS (P388/S) | P388/S tumor-free survivors/total on day 60 (P388/S) | P388/S optimal dose (P388/S) | MTD (maximum tolerated dose) [1] | Percent isolated: "tissue" bound [2] | Percent isolated: protein conjugates [2] | Percent isolated: unidentified metabolite [2] | Percent metabolite isolated: 4a glucuronide and/or sulfate [2] | Percent metabolite isolated: "symmetrical" AMD (4a) [2] | Percent isolated: unconverted [2] | Percent metabolite isolated: 2a glucuronide and/or sulfate [2] | Percent metabolite isolated: 7-hydroxy-AMD (2a) [2]
Cc1c2oc3c(C)c(O)c(N)c(C(=O)NC4C(=O)NC(C(C)C)C(=O)N5CCCC5C(=O)N(C)CC(=O)N(C)C(C(C)C)C(=O)OC4C)c3nc-2c(C(=O)NC2C(=O)NC(C(C)C)C(=O)N3CCCC3C(=O)N(C)CC(=O)N(C)C(C(C)C)C(=O)OC2C)c(N)c1=O (stereo not drawn) [4a, 7-Hydroxy-8-amino-actinomycin D] | 0.025 milligram/kilogram | lack of intercalative binding | 176% | 3/8 | 1.2 mg/kg | 382% | 4/8 | 0.6 mg/kg | 2.40 milligram/kilogram | – | – | – | – | – | – | – | –
Cc1nc2c(C(=O)NC3C(=O)NC(C(C)C)C(=O)N4CCCC4C(=O)N(C)CC(=O)N(C)C(C(C)C)C(=O)OC3C)c3nc4c(C(=O)NC5C(=O)NC(C(C)C)C(=O)N6CCCC6C(=O)N(C)CC(=O)N(C)C(C(C)C)C(=O)OC5C)c(N)c(=O)c(C)c-4oc3c(C)c2o1 [7a, 7-Amino-2,9,11-trimethyl-8H-8-oxooxazolo [4,5-b]phenoxazine 4,6-bis[carbonyl-L-threonyl-D-valyl-L-prolylsarcosyl-L-N-methylvaline-(threonine hydroxyl)] lactone] | – | – | – | – | – | – | – | – | – | 8.8% | 5.5% | 12.7% | 17.5% | 15.5% | 40% | – | –
Cc1nc2c(C(=O)NC3C(=O)NC(C(C)C)C(=O)N4CCCC4C(=O)N(C)CC(=O)N(C)C(C(C)C)C(=O)OC3C)c3nc4c(C(=O)NC5C(=O)NC(C(C)C)C(=O)N6CCCC6C(=O)N(C)CC(=O)N(C)C(C(C)C)C(=O)OC5C)cc(=O)c(C)c-4oc3c(C)c2o1 (stereo not drawn) [9a] | – | – | – | – | – | – | – | – | – | 7.5% | 5.5% | 46.3% | – | – | 20% | 12.2% | 8.5%
Cc1c2oc3c(C)ccc(C(=O)N[C@@H]4C(=O)N[C@H](C(C)C)C(=O)N5CCC[C@H]5C(=O)N(C)CC(=O)N(C)[C@@H](C(C)C)C(=O)O[C@@H]4C)c3nc-2c(C(=O)N[C@@H]2C(=O)N[C@H](C(C)C)C(=O)N3CCC[C@H]3C(=O)N(C)CC(=O)N(C)[C@@H](C(C)C)C(=O)O[C@@H]2C)c(N)c1=O [AMD, Actinomycin D] (I: T[dV]P[Sar][NMeV] / II: T[dV]P[Sar][NMeV]; ester I:1-I:C, II:1-II:C; linker I:N-II:N via Actinocin(9to1)) | 0.0625 milligram/kilogram | steady rise in the value of γ | 22% | – | 0.25 mg/kg | 132% | 1/8 | 0.25 mg/kg | 0.25 milligram/kilogram | – | – | – | – | – | 100% | – | –
